Source: patent US7964607B2, “Pyrazolo[3,4-d]pyrimidine compounds” (Pfizer Inc., priority 2007, dated 2011)

Biological target: T1, human recombinant PDE9 enzyme (Homo sapiens, UniProt O76083)
T1 construct: made in house; host or cells: SF-9 insect cells
Assay: Phosphodiesterase 9 (PDE9) inhibitory activity, Scintillation Proximity (SPA) assay
Format: biochemical
Settings: human recombinant PDE9 from SF-9 cells; 50 nM [3H]cGMP; room temperature, 30 min; additional compounds Ex. 115-228; read-out: G5678A (U):IC50
Description: Phosphodiesterase 9 (PDE9) Inhibitory Activity The PDE9 assay was performed using the Phosphodiesterase Scintillation Proximity (SPA) assay (GE Healthcare Life Sciences). […] The human recombinant PDE9 enzyme was generated in SF-9 cells, the cell pellets were sonicated in buffer (20 mM TRIS, 2 mM benzamidine, 1 mM EDTA, 250 mM sucrose, 100 μM PMSF, pH 7.5 with HCl), centrifuged at 40,000×g for 20 min at 4° C. The supernatants were stored at −80° C. […] Test compounds were dissolved in DMSO, diluted in DI H2O and serially diluted in 20% DMSO/80% H2O, for a final concentration of 2% DMSO. For the assay the PDE9 was diluted with assay buffer such that 20% or less of the substrate was hydrolyzed to 5′GMP. Each assay well contained 10 μl of test compound or solvent, 40 μl of [^3H]CGMP and 50 μl of enzyme, background was determined by a high concentration of a PDE inhibitor. The assay was initiated with the addition of the enzyme and carried out at room temperature for 30 min. […] The plates were sealed, vortexed, allowed to set for >300 min, then counted in a Wallac TriLux MicroBeta LSC.

T1 sequence (O76083 whole entry): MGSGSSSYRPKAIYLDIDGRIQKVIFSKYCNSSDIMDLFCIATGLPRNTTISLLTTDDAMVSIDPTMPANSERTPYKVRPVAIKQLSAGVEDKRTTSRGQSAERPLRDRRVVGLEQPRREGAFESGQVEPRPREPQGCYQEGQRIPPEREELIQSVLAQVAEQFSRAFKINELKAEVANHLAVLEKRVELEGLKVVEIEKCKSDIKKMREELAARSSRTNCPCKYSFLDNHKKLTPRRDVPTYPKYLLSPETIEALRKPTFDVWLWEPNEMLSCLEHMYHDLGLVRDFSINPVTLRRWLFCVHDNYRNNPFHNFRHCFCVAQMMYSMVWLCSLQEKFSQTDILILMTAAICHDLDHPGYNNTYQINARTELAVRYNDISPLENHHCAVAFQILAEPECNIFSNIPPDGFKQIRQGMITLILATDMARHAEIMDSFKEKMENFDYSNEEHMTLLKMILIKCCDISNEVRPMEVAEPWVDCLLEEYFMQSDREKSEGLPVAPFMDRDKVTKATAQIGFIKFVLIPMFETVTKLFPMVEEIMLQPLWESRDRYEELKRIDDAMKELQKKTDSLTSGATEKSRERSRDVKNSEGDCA

| SMILES | IC50 [nM] |
| --- | --- |
| CCOc1ncccc1CN1C[C@@H](C)[C@H](c2nc3c(cnn3C3CCCC3)c(=O)[nH]2)C1 (racemic) [Example 120, 1-cyclopentyl-6-{(3,4-trans)-1-[(2-ethoxypyridin-3-yl)methyl]-4-methylpyrrolidin-3-yl}-1,5-dihydro-4H-pyrazolo[3,4-d]pyrimidin-4-one] | 62.7 |
| C[C@@H]1CN(Cc2cnn3c2CCCC3)C[C@H]1c1nc2c(cnn2C2CCCC2)c(=O)[nH]1 (racemic) [Example 121, 1-cyclopentyl-6-[(3,4-trans)-4-methyl-1-(4,5,6,7-tetrahydropyrazolo[1,5-a]pyridin-3-ylmethyl)pyrrolidin-3-yl]-1,5-dihydro-4H-pyrazolo[3,4-d]pyrimidin-4-one] | 83.9 |
| C[C@@H]1CN(Cc2ccc3c(c2)OCCO3)C[C@H]1c1nc2c(cnn2C2CCCC2)c(=O)[nH]1 (racemic) [Example 122, 1-cyclopentyl-6-[(3,4-trans)-1-(2-3-dihydro-1,4-benzodioxin-6-ylmethyl)-4-methylpyrrolidin-3-yl]-1,5-dihydro-4H-pyrazolo[3,4-d]pyrimidin-4-one] | 56.4 |
| C[C@@H]1CN(Cc2ccc(-n3ccnc3)cc2)C[C@H]1c1nc2c(cnn2C2CCCC2)c(=O)[nH]1 (racemic) [Example 123, 1-cyclopentyl-6-{(3,4-trans)-1-[4-(1H-imidazol-1-yl)benzyl]-4-methylpyrrolidin-3-yl}-1,5-dihydro-4H-pyrazolo[3,4-d]pyrimidin-4-one] | 39.3 |
| COc1ccc(CN2C[C@@H](C)[C@H](c3nc4c(cnn4C4CCCC4)c(=O)[nH]3)C2)cc1C (racemic) [Example 125, 1-cyclopentyl-6-[(3,4-trans)-1-(4-methoxy-3-methylbenzyl)-4-methylpyrrolidin-3-yl]-1,5-dihydro-4H-pyrazolo[3,4-d]pyrimidin-4-one] | 55.2 |
| C[C@@H]1CN(Cc2cccc(F)c2F)C[C@H]1c1nc2c(cnn2C2CCCC2)c(=O)[nH]1 (racemic) [Example 127, 1-cyclopentyl-6-[(3,4-trans)-1-(2,3-difluorobenzyl)-4-methylpyrrolidin-3-yl]-1,5-dihydro-4H-pyrazolo[3,4-d]pyrimidin-4-one] | 61.7 |
| COc1ccc(F)cc1CN1C[C@@H](C)[C@H](c2nc3c(cnn3C3CCCC3)c(=O)[nH]2)C1 (racemic) [Example 128, 1-cyclopentyl-6-[(3,4-trans)-1-(5-fluoro-2-methoxybenzyl)-4-methylpyrrolidin-3-yl]-1,5-dihydro-4H-pyrazolo[3,4-d]pyrimidin-4-one] | 70.9 |
| COc1ccc(CN2C[C@@H](C)[C@H](c3nc4c(cnn4C4CCCC4)c(=O)[nH]3)C2)c(F)c1 (racemic) [Example 129, 1-cyclopentyl-6-[(3,4-trans)-1-(2-fluoro-4-methoxybenzyl)-4-methylpyrrolidin-3-yl]-1,5-dihydro-4H-pyrazolo[3,4-d]pyrimidin-4-one] | 71.8 |
| Cc1ccc(CN2C[C@@H](C)[C@H](c3nc4c(cnn4C4CCCC4)c(=O)[nH]3)C2)cc1F (racemic) [Example 130, 1-cyclopentyl-6-[(3,4-trans)-1-(3-fluoro-4-methylbenzyl)-4-methylpyrrolidin-3-yl]-1,5-dihydro-4H-pyrazolo[3,4-d]pyrimidin-4-one] | 60 |
| Cc1ccc(CN2C[C@@H](C)[C@H](c3nc4c(cnn4C4CCCC4)c(=O)[nH]3)C2)c(F)c1F (racemic) [Example 134, 1-cyclopentyl-6-[(3,4-trans)-1-(2,3-difluoro-4-methylbenzyl)-4-methylpyrrolidin-3-yl]-1,5-dihydro-4H-pyrazolo[3,4-d]pyrimidin-4-one] | 93.5 |
| Cc1ccc(CN2C[C@@H](C)[C@H](c3nc4c(cnn4C4CCCC4)c(=O)[nH]3)C2)cc1 (racemic) [Example 136, 1-cyclopentyl-6-[(3,4-trans)-4-methyl-1-(4-methylbenzyl)pyrrolidin-3-yl]-1,5-dihydro-4H-pyrazolo[3,4-d]pyrimidin-4-one] | 132 |
| C[C@@H]1CN(Cc2ccc3ccccc3c2)C[C@H]1c1nc2c(cnn2C2CCCC2)c(=O)[nH]1 (racemic) [Example 137, 1-cyclopentyl-6-[(3,4-trans)-4-methyl-1-(2-naphthylmethyl)pyrrolidin-3-yl]-1,5-dihydro-4H-pyrazolo[3,4-d]pyrimidin-4-one] | 54.5 |
| COc1ncccc1CN1C[C@@H](C)[C@H](c2nc3c(cnn3C3CCCC3)c(=O)[nH]2)C1 (racemic) [Example 138, 1-cyclopentyl-6-{(3,4-trans}-1-[(2-methoxypyridin-3-yl)methyl]-4-methylpyrrolidin-3-yl}-1,5-dihydro-4H-pyrazolo[3,4-d]pyrimidin-4-one] | 47.7 |
| CCOc1ccccc1CN1C[C@@H](C)[C@H](c2nc3c(cnn3C3CCCC3)c(=O)[nH]2)C1 (racemic) [Example 139, 1-cyclopentyl-6-[(3,4-trans)-1-(2-ethoxybenzyl)-4-methylpyrrolidin-3-yl]-1,5-dihydro-4H-pyrazolo[3,4-d]pyrimidin-4-one] | 97.5 |
| C[C@@H]1CN(Cc2ccc(-n3cncn3)cc2)C[C@H]1c1nc2c(cnn2C2CCCC2)c(=O)[nH]1 (racemic) [Example 140, 1-cyclopentyl-6-{(3,4-trans)-4-methyl-1-[4-(1H-1,2,4-triazol-1-yl)benzyl]pyrrolidin-3-yl}-1,5-dihydro-4H-pyrazolo[3,4-d]pyrimidin-4-one] | 26.8 |
| COc1cc(CN2C[C@@H](C)[C@H](c3nc4c(cnn4C4CCCC4)c(=O)[nH]3)C2)ccc1C (racemic) [Example 141, 1-cyclopentyl-6-[(3,4-trans)-1-(3-methoxy-4-methylbenzyl)-4-methylpyrrolidin-3-yl]-1,5-dihydro-4H-pyrazolo[3,4-d]pyrimidin-4-one] | 53.1 |
| COc1ccc(OC)c(CN2C[C@@H](C)[C@H](c3nc4c(cnn4C4CCCC4)c(=O)[nH]3)C2)c1 (racemic) [Example 144, 1-cyclopentyl-6-[(3,4-trans)-1-(2,5-dimethoxybenzyl)-4-methylpyrrolidin-3-yl]-1,5-dihydro-4H-pyrazolo[3,4-d]pyrimidin-4-one] | 99.6 |
| Cc1cc(CN2C[C@@H](C)[C@H](c3nc4c(cnn4C4CCCC4)c(=O)[nH]3)C2)no1 (racemic) [Example 145, 1-cyclopentyl-6-{(3,4-trans)-4-methyl-1-[(5-methylisoxazol-3-yl)methyl]pyrrolidin-3-yl}-1,5-dihydro-4H-pyrazolo[3,4-d]pyrimidin-4-one] | 77.4 |

Further compounds by falling IC50, results first:

| IC50 [nM] | SMILES |
| --- | --- |
| 91.6 | C[C@@H]1CN(Cc2cccc(-n3cccn3)n2)C[C@H]1c1nc2c(cnn2C2CCCC2)c(=O)[nH]1 (racemic) [Example 135, 1-cyclopentyl-6-[(3,4-trans)-4-methyl-1-{[6-(1H-pyrazol-1-yl)pyridin-2-yl]methyl}pyrrolidin-3-yl]-1,5-dihydro-4H-pyrazolo[3,4-d]pyrimidin-4-one] |
| 88.7 | C[C@@H]1CN(Cc2cccc3c2OCC3)C[C@H]1c1nc2c(cnn2C2CCCC2)c(=O)[nH]1 (racemic) [Example 126, 1-cyclopentyl-6-[(3,4-trans)-1-(2,3-dihydro-1-benzofuran-7-ylmethyl)-4-methylpyrrolidin-3-yl]-1,5-dihydro-4H-pyrazolo[3,4-d]pyrimidin-4-one] |
| 80.9 | C[C@@H]1CN(Cc2cc(Cl)ccc2Cl)C[C@H]1c1nc2c(cnn2C2CCCC2)c(=O)[nH]1 (racemic) [Example 124, 1-cyclopentyl-6-[(3,4-trans)-1-(2,5-dichlorobenzyl)-4-methylpyrrolidin-3-yl]-1,5-dihydro-4H-pyrazolo[3,4-d]pyrimidin-4-one] |
| 74 | Cc1cccc(CN2C[C@@H](C)[C@H](c3nc4c(cnn4C4CCCC4)c(=O)[nH]3)C2)c1C (racemic) [Example 118, 1-cyclopentyl-6-[(3,4-trans)-1-(2,3-dimethylbenzyl)-4-methylpyrrolidin-3-yl]-1,5-dihydro-4H-pyrazolo[3,4-d]pyrimidin-4-one] |
| 47.5 | C[C@@H]1CN(Cc2cccc3ccccc23)C[C@H]1c1nc2c(cnn2C2CCCC2)c(=O)[nH]1 (racemic) [Example 142, 1-cyclopentyl-6-[(3,4-trans)-4-methyl-1-(1-naphthylmethyl)pyrrolidin-3-yl]-1,5-dihydro-4H-pyrazolo[3,4-d]pyrimidin-4-one] |
| 41.9 | Cc1ncc(CN2C[C@@H](C)[C@H](c3nc4c(cnn4C4CCCC4)c(=O)[nH]3)C2)s1 (racemic) [Example 131, 1-cyclopentyl-6-{(3,4-trans)-4-methyl-1-[(2-methyl-1,3-thiazol-5-yl)methyl]pyrrolidin-3-yl}-1,5-dihydro-4H-pyrazolo[3,4-d]pyrimidin-4-one] |
| 37.5 | CC(C)c1csc(CN2C[C@@H](C)[C@H](c3nc4c(cnn4C4CCCC4)c(=O)[nH]3)C2)n1 (racemic) [Example 132, 1-cyclopentyl-6-{(3,4-trans)-1-[(4-isopropyl-1,3-thiazol-2-yl)methyl]-4-methylpyrrolidin-3-yl}-1,5-dihydro-4H-pyrazolo[3,4-d]pyrimidin-4-one] |
| 32.8 | C[C@@H]1CN(Cc2ccccc2OC(F)F)C[C@H]1c1nc2c(cnn2C2CCCC2)c(=O)[nH]1 (racemic) [Example 119, 1-cyclopentyl-6-{(3,4-trans)-1-[2-(difluoromethoxy)benzyl]-4-methylpyrrolidin-3-yl}-1,5-dihydro-4H-pyrazolo[3,4-d]pyrimidin-4-one] |
